{"source": "paper PMC9767876", "about": "“Development of a robust and convenient dual-reporter high-throughput screening assay for SARS-CoV-2 antiviral drug discovery” (Antiviral Research, 2023)", "key": {"[1]": {"tested_on": "SARS-CoV-2_mNeonGreen virus (Wuhan strain)", "experiment": "microbe, parasite or virus in culture", "assay_type": "cell-based", "conditions": "for EC50: read-out: EC50 Mean ± SD (antiviral activity)"}, "[2]": {"experiment": "in vitro", "conditions": "human"}, "[3]": {"tested_on": "A549+hACE2+hTMPRSS2_mCherry cells"}, "[4]": {"conditions": "Severe acute respiratory syndrome coronavirus 2"}}, "note": "Like-named read-outs stand apart in the source and are kept apart here."}
{"smiles": "CCC(CC)COC(=O)[C@H](C)N[P@](=O)(OC[C@H]1O[C@@](C#N)(c2ccc3c(N)ncnn23)[C@H](O)[C@@H]1O)Oc1ccccc1", "note": "[Remdesivir]", "values": [{"measurement": "EC50", "setting": "[1]; [4]", "value": "40 ± 5", "unit": "nM"}, {"measurement": "CC50", "setting": "[2]", "value": "> 50000", "unit": "nM"}]}
{"smiles": "Cn1cnc(Cn2c(=O)[nH]/c(=N\\c3cc4cn(C)nc4cc3Cl)n(Cc3cc(F)c(F)cc3F)c2=O)n1", "note": "[Ensitrelvir]", "values": [{"measurement": "EC50", "setting": "[1]; [4]", "value": "260 ± 43", "unit": "nM"}, {"measurement": "CC50", "setting": "[2]", "value": "> 50000", "unit": "nM"}]}
{"smiles": "COc1cccc2[nH]c(C(=O)N[C@@H](CC(C)C)C(=O)N[C@@H](C[C@@H]3CCNC3=O)C(=O)CO)cc12", "note": "[PF-00835231]", "values": [{"measurement": "selectivity index (SI)", "setting": "[1]", "value": "> 115"}, {"measurement": "EC50", "setting": "[1]", "value": "430 ± 80", "unit": "nM"}, {"measurement": "CC50", "setting": "[3]", "value": "> 50000", "unit": "nM"}]}
{"smiles": "C/C=C/C[C@@H](C)[C@@H](O)[C@H]1C(=O)N[C@@H](CC)C(=O)N(C)[C@H](C)C(=O)N(CC)[C@@H](C(C)C)C(=O)N[C@@H](C(C)C)C(=O)N(C)[C@@H](CC(C)C)C(=O)N[C@@H](C)C(=O)N[C@H](C)C(=O)N(C)[C@@H](CC(C)C)C(=O)N(C)[C@@H](CC(C)C)C(=O)N(C)[C@@H](C(C)C)C(=O)N1C", "note": "[Alisporivir]", "values": [{"measurement": "EC50", "setting": "[1]; [4]", "value": "1460 ± 130", "unit": "nM"}, {"measurement": "CC50", "setting": "[2]", "value": "23800 ± 4750", "unit": "nM"}]}
{"smiles": "CC(C)(C)[C@H](NC(=O)C(F)(F)F)C(=O)N1C[C@H]2[C@@H]([C@H]1C(=O)N[C@H](C#N)C[C@@H]1CCNC1=O)C2(C)C", "note": "[Nirmatrelvir]", "values": [{"measurement": "EC50", "setting": "[1]; [4]", "value": "120 ± 17", "unit": "nM"}, {"measurement": "CC50", "setting": "[2]", "value": "> 50000", "unit": "nM"}]}
{"smiles": "CN(C)C(=O)COC(=O)Cc1ccc(OC(=O)c2ccc(NC(=N)N)cc2)cc1", "note": "[Camostat]", "values": [{"measurement": "EC50", "setting": "[1]; [4]", "value": "> 50000", "unit": "nM"}, {"measurement": "CC50", "setting": "[2]", "value": "> 50000", "unit": "nM"}]}
{"smiles": "N#C[C@@]1(c2ccc3c(N)ncnn23)O[C@H](CO)[C@@H](O)[C@H]1O", "note": "[GS-441524]", "values": [{"measurement": "selectivity index (SI)", "setting": "[1]", "value": "> 30"}, {"measurement": "EC50", "setting": "[1]; [4]", "value": "1660 ± 420", "unit": "nM"}, {"measurement": "CC50", "setting": "[2]", "value": "> 50000", "unit": "nM"}]}
{"smiles": "CCn1c(CO)nn(-c2cc(O[C@@H](C)C(F)(F)F)c(C(=O)Nc3c(F)cccc3Cl)cc2F)c1=O", "note": "[BAY-2402234]", "values": [{"measurement": "EC50", "setting": "[1]", "value": "5 ± 1", "unit": "nM"}]}
{"smiles": "CC(C)C(=O)OC[C@H]1O[C@@H](n2ccc(NO)nc2=O)[C@H](O)[C@@H]1O", "note": "[Molnupiravir]", "values": [{"measurement": "EC50", "setting": "[1]; [4]", "value": "1260 ± 230", "unit": "nM"}, {"measurement": "CC50", "setting": "[2]", "value": "> 50000", "unit": "nM"}]}
